{"source": "paper PMC8765310", "about": "“Metabolism, Excretion, and Mass Balance of [^14C]-Rezafungin in Animals and Humans” (Antimicrobial Agents and Chemotherapy, 2022)", "key": {"[1]": {"assay": "Human excretion/mass balance of [14C]-rezafungin", "type": "in vivo", "description": "(§1) (i) Study design. This was an open-label, phase I, single-dose mass balance study. The study was conducted at Labcorp (formerly, Covance, Inc.; Madison, WI) in accordance with good clinical practice, including ICH guidelines and applicable regulatory requirements, and in general conformity with the Declaration of Helsinki. No animal work was conducted by Labcorp. All pertinent study documents were reviewed by the Institutional Review Board (IRB) prior to study initiation. Following IRB approval and collection of written informed consent, all the subjects underwent an initial screening assessment within 28 days of the first dose. Safety was assessed by vital signs, physical examinations, AE assessments, laboratory tests (chemistry, hematology, and urinalysis), and a 12-lead electrocardiogram.\n(§2) Subjects were initially confined in the clinical research unit (CRU) for 17 days postdose and returned for two follow-up visits (days 29 and 60). Recovery of radioactivity was estimated by linear interpolation during the period of time subjects were away from the CRU. Blood samples, urine, and feces were collected at specified times over 60 days.\n(§3) (ii) Sample analysis. Whole blood, plasma, urine, and fecal homogenate samples were mixed with scintillation fluid and analyzed by liquid scintillation counting. For non-radiolabeled rezafungin concentration determination, a bioanalytical method was validated for measuring rezafungin in human plasma that is similar to one previously reported for animal plasma ([16]). Samples were analyzed using a 100 μl aliquot volume and a protein-precipitation extraction procedure followed by liquid chromatography/tandem mass spectrometry (LC-MS/MS) analysis. Chromatography was carried out on a Waters Atlantis HPLC column (dC18, 2.1 × 50 mm, 5 μm) operating under reverse-phase gradient conditions (0.1% formic acid in water/0.1% formic acid in acetonitrile/tetrahydrofuran ramped from 55%/45%/0% to 5%/0%/95%). Rezafungin calibration range was 10.0 ng/ml to 10,000 ng/ml using isotopically-labeled d9-rezafungin as an internal standard. An AB-Sciex API 4000 mass spectrometer was operated in the multiple reaction monitoring mode (parent-to-product ion transition) under optimized conditions for detection of rezafungin (m/z 604.5 to 343.3 Da) and d9-rezafungin (m/z 609.5 to 343.3 Da) positive ions formed by electrospray ionization. Excellent intra- and inter-assay accuracy and precision, as measured by quality control (QC) samples, was obtained during validation. Across the range of QC samples tested (lower limit of quantitation, LLOQ, through the High QC range), the intra-assay accuracy (% bias from nominal) ranged from −1.4% to 7.0% with the intra-assay precision (% coefficient of variation) ranging from 1.6% to 7.4%. Inter-assay accuracy ranged from 0.3% to 4.3% with the inter-assay precision ranging from 2.7% to 5%."}, "[2]": {"assay": "Monkey metabolite profiling (LC-MS with radioactivity detection)", "type": "in vivo, cynomolgus monkeys", "details": "pooled samples, IV 10 mg/kg", "description": "(ii) Monkey study design. The study used 3 male cynomolgus monkeys, each administered a single 10 mg/kg IV dose of [^14C]-rezafungin (with a target radioactivity of 100 μCi/kg of [^14C]-rezafungin) by infusion into a saphenous vein over 20 min. Whole blood and plasma samples were collected at each of the following time points: predose, 0.5, 2, 4, 8, 24, 48, 96 120, 144, 168, 240, 480, 720, and 1440 h postdose. Urine, feces, and cage washings were collected at predose (urine/feces only) and daily 24-h collections for 30 days.\n(§4) (iv) Metabolite profiling. The metabolite identification and urine profiling were achieved using pooled samples by equal percent weight of samples (urine, bile, feces) or by equal volume (50 μl) aliquots of each plasma sample across all time points/intervals. The urine, plasma, bile, and fecal samples were analyzed using liquid chromatography tandem mass spectrometry (LC-MS) coupled with a radioactivity flow-through detector for metabolite profiling and identification. Tandem MS experiments were performed, and the structures of the metabolites were proposed based on their MS/MS spectra. The proposed structures were confirmed by comparison of the retention times and product ion spectra with the authentic reference standards when possible."}, "[3]": {"assay": "Rat blood and plasma radioactivity pharmacokinetics", "type": "in vivo, Sprague-Dawley rats", "details": "IV [14C]-rezafungin 15 mg/kg, mean plasma concentrations", "description": "(§5) (i) Rat study design. The study used 12 male Sprague-Dawley rats, each administered a bolus IV injection into the tail vein over approximately 3–4 min of 15 mg/kg of rezafungin (with a target radioactivity of 200 μCi/kg of [^14C]-rezafungin). Three of the rats were bile duct cannulated. Whole blood/plasma, urine, feces/bile, and cage washings were collected at periodic intervals from noncannulated rats until euthanization at 336 h postdose and from bile duct cannulated rats until euthanization at 120 h postdose as that was the duration that the patency of bile duct cannulae could be maintained. Carcasses were collected at the time of euthanization. All samples were analyzed for drug-derived radioactivity by liquid scintillation counting.\n(iii) Sample analysis. Whole blood and fecal homogenates were combusted prior to analysis by liquid scintillation counting (LSC). Blood, plasma, bile, urine, cage rinse/wash, and fecal homogenate samples were mixed with scintillation fluid and analyzed for radioactivity by LSC. Rat carcasses were dissolved in potassium hydroxide, and the resulting digests were mixed with scintillation fluid and analyzed for radioactivity by LSC."}, "[4]": {"assay": "Human clinical pharmacokinetics (plasma rezafungin, plasma and whole blood total radioactivity)", "type": "in vivo", "description": "as §1, §2, §3\n(iv) Metabolite profiling. Plasma samples were pooled across subjects through 672 h postdose to produce inter-subject time point pools. Urine and fecal homogenate samples were pooled by subject across various time points up through 408 and 672 h postdose, respectively. Selected samples of plasma, urine, and feces were profiled for rezafungin and metabolites by HPLC with radiochemical and high-resolution mass spectrometry detection; metabolites were identified by HPLC with known standards and/or by HPLC-MS/MS structure elucidation. Pharmacokinetics were calculated by non-compartmental analysis using Phoenix WinNonlin software (version 6.3/8.1; Pharsight, Mountain View, CA)."}, "[5]": {"assay": "Rat metabolite profiling (LC-MS with radioactivity detection)", "type": "in vivo, Sprague-Dawley rats", "details": "pooled samples, IV 15 mg/kg", "description": "as §5, §4"}, "[6]": {"assay": "Clinical safety in the human mass balance study", "type": "in vivo", "details": "single IV 400-mg infusion", "description": "as §1"}, "[7]": {"details": "of the estimated total through day 60"}, "[8]": {"details": "single 400-mg IV infusion, LSC, mean (SD)"}, "[9]": {"details": "single 400-mg IV infusion, mean (SD)"}, "[10]": {"details": "single 400-mg IV infusion, median (min, max)"}}, "note": "*1 amine or outer side, *2 acyl side, *3 side chain or, on linkers, in order; H or OH if unused. Where a SMILES comes first, the peptide text is derived from it. Bridges are numbered along the chain shown (N, C = ends). [ ]: non-standard residue; d: D form. The star is where a group is joined. Orn(4R-OH,5R-OCH2CH2NMe3+) = C[N+](C)(C)CCO[C@@H](N[*:3])[C@H](O)C[C@H](N[*:1])C(=O)[*:2]; pTerphenylCO(4''-OnC5H11) = CCCCCOc1ccc(-c2ccc(-c3ccc(C(=O)*)cc3)cc2)cc1; hTyr(3S-OH,4S-OH) = N[C@H](C(=O)O)[C@H](O)[C@@H](O)c1ccc(O)cc1; Pro(3S-OH,4S-Me) = C[C@H]1CN[C@H](C(=O)O)[C@H]1O; Hyp = O=C(O)[C@@H]1C[C@@H](O)CN1"}
{"smiles": "CCCCCOc1ccc(-c2ccc(-c3ccc(C(=O)N[C@H]4C[C@@H](O)[C@@H](OCC[N+](C)(C)C)NC(=O)[C@@H]5[C@@H](O)[C@@H](C)CN5C(=O)[C@H]([C@@H](C)O)NC(=O)[C@H]([C@H](O)[C@@H](O)c5ccc(O)cc5)NC(=O)[C@@H]5C[C@@H](O)CN5C(=O)[C@H]([C@@H](C)O)NC4=O)cc3)cc2)cc1", "note": "[rezafungin] ({pTerphenylCO(4''-OnC5H11)}-[Orn(4R-OH,5R-OCH2CH2NMe3+)]T[Hyp][hTyr(3S-OH,4S-OH)]T[Pro(3S-OH,4S-Me)]; lactam 1-C)", "values": [{"measurement": "Share of the total recovered radioactivity found in feces", "setting": "[1]; [7]", "result": "Approximately 73%"}, {"measurement": "Share of the total recovered radioactivity found in urine", "setting": "[1]; [7]", "result": 27, "unit": "%"}, {"measurement": "Cumulative recovery of radioactivity from excreta", "setting": "[1]; single 400-mg IV infusion, through the first 17 days (in-clinic), LSC, mean", "result": 52, "unit": "%"}, {"measurement": "Estimated mean overall recovery of the dose", "setting": "[1]; through day 60, linear interpolation with day 29 and day 60 visits", "result": 88.3, "unit": "%"}, {"measurement": "Cumulative recovery of radioactivity in feces", "setting": "[1]; through the first 17 days", "result": 38, "unit": "%"}, {"measurement": "Cumulative recovery of radioactivity in urine", "setting": "[1]; through the first 17 days", "result": 14, "unit": "%"}, {"measurement": "Share of total recovered radioactivity in feces", "setting": "[2]; monkey feces", "result": 35, "unit": "%"}, {"measurement": "Share of total plasma radioactivity exposure", "setting": "[2]; monkey plasma, LC-MS with radio-detection", "result": 74, "unit": "%"}, {"measurement": "t1/2 of plasma total radioactivity", "setting": "[3]", "result": 54, "unit": "h"}, {"measurement": "Cmax", "setting": "[4]; male, plasma, single 400-mg IV infusion, LC-MS/MS, mean (SD), SD", "result": 18900, "unit": "ng/mL"}, {"measurement": "AUC(0-inf)", "setting": "[4]; male, plasma, single 400-mg IV infusion, LC-MS/MS, mean (SD), SD, read-out: AUC0-∞, plasma rezafungin", "result": 2110, "unit": "µg·h/mL"}, {"measurement": "Vd", "setting": "[4]; male, plasma, single 400-mg IV infusion, apparent volume of distribution, terminal phase, mean (SD), SD, read-out: VZ, plasma rezafungin", "result": 88.6, "unit": "L"}, {"measurement": "Tmax", "setting": "[4]; male, plasma, single 400-mg IV infusion, median (min, max)", "result": 1, "unit": "h"}, {"measurement": "half-life", "setting": "[4]; male, plasma, single 400-mg IV infusion, terminal elimination half-life, mean (SD), SD, read-out: t½, plasma rezafungin (converted)", "result": 341, "unit": "h"}, {"measurement": "AUC(0-t)", "setting": "[4]; plasma, 9 healthy male subjects, single 400-mg IV infusion (200 μCi), LC-MS/MS, arithmetic mean (SD), SD, read-out: AUC0-t, plasma rezafungin", "result": 2050, "unit": "µg·h/mL"}, {"measurement": "AUC0-t, plasma total radioactivity", "setting": "[4]; single 400-mg IV infusion (200 μCi), LSC, mean (SD)", "result": "2600 (163) μg equivalent×hour/ml"}, {"measurement": "AUC0-t, whole blood total radioactivity", "setting": "[4]; [8]", "result": "2390 (175) μg equivalent×hour/ml"}, {"measurement": "AUC0-∞, plasma total radioactivity", "setting": "[4]; [8]", "result": "2750 (182) μg equivalent×hour/ml"}, {"measurement": "AUC0-∞, whole blood total radioactivity", "setting": "[4]; [8]", "result": "2450 (200) μg equivalent×hour/ml"}, {"measurement": "Cmax, plasma total radioactivity", "setting": "[4]; [8]", "result": "18.2 (2.28) μg/ml"}, {"measurement": "Cmax, whole blood total radioactivity", "setting": "[4]; [8]", "result": "18.5 (2.24) μg/ml"}, {"measurement": "t½, plasma total radioactivity", "setting": "[4]; [9]", "result": "387 (44.8) hours"}, {"measurement": "t½, whole blood total radioactivity", "setting": "[4]; [9]", "result": "408 (39.7) hours"}, {"measurement": "tmax, plasma total radioactivity", "setting": "[4]; [10]", "result": "1.00 (1.00, 1.00) hours"}, {"measurement": "tmax, whole blood total radioactivity", "setting": "[4]; [10]", "result": "1.00 (1.00, 1.00) hours"}, {"measurement": "Radioactive component in feces and bile", "setting": "[5]; rat feces and bile", "result": "predominant radioactive component"}, {"measurement": "Share of total plasma radioactivity exposure", "setting": "[5]; rat plasma, LC-MS with radio-detection", "result": 56, "unit": "%"}, {"measurement": "Treatment-emergent adverse events (TEAEs) reported, total number", "setting": "[6]; 9 healthy male subjects", "result": 13}, {"measurement": "Deaths, SAEs", "setting": "[6]; 9 subjects", "result": "no deaths or other SAEs"}, {"measurement": "Laboratory assessments, vital signs, ECGs, physical examinations", "setting": "[6]; 9 subjects", "result": "no clinically relevant treatment-related findings"}, {"measurement": "Severe TEAEs", "setting": "[6]; 9 subjects", "result": "no severe TEAEs"}, {"measurement": "Subjects with diarrhea (most common TEAE)", "setting": "[6]; of 9 subjects", "result": "two"}]}
